Laboratory results from paper PMC5048153 (Scientific Reports, 2016).

How the values were obtained:
H9C2 cells = experiment: Cytotoxicity on H9C2 cells (MTT); assay type: cell-based; conditions: Rattus norvegicus, 48 h
Experimental: Human normal hepatic L02 cells, human embryonic kidney cell line 293 cells (HEK293) and Rattus myoblast cell line H9C2 cells were respectively seeded in 96-well plates at a density of 4 × 10^3 cells per well and cultured in the 1640 or DMEM medium, with the supplement of 10% fetal bovine serum, penicillin (100 unit/ml), streptomycin (100 μg/ml) in a humidified incubator with 5% CO2 for 24 h. After adherence, L02, HEK293 and H9C2 cells were exposed to different compounds for another 48 h. The cytotoxicities of the compounds were evaluated by MTT method.

[1] = test system: corticosterone-injured PC12 cells; experiment: Intracellular calcium ion concentration analysis (Fura-2 AM); assay type: cell-based, rat; conditions: 200 µM corticosterone and 5 µM drug
Experimental: The detailed procedures were performed according to the reported literatures. In brief, calcium ion concentration was measured by Fura-2 AM (Thermo Scientific). PC12 cells were treated with compound 6a-1 for 48 hours. Then cells were detached with 0.25% trypsin and centrifuged at 1000 r/min for 5 minutes. The supernatant was removed and the cells were stained with Fura-2 AM according to the manufacturer’s instructions. Fluorescence intensity of labeled cells was photographed for 25 random sights each group using Thermo Scientific Array Scan Infinity.

SD rats [2] = experiment: Forced swim test; assay type: in vivo, rat; conditions: ig. 32 mg/kg/day, days 2–15
Experimental: The detailed procedures were performed according to our previous studies. Briefly, each SD rat was placed in a vertical Plexiglas cylinder (height 50 cm; diameter 20 cm) containing 18 cm height of water at 25 ± 2 °C and was forced to swim individually for 15 min on1st day. From 2nd day to 15th day, the rats were intragastrically administered compound 6a-1 or control drugs at dosage of 32 mg/kg/day. On the 2nd day and 15th day, 30 minutes after drug treatment, each rat was placed again into water and forced to swim for 6 min. The rat behavior was recorded by a video camera placed directly facing cylinders. The duration of immobility during the last 4 minutes was analyzed by Xeye Animal behavior analysis system (Xeye Aba V3.2). The rat was considered as immobile when its moving speed was less than 20 mm/s. The dosage of is 32 mg/kg every day. The water in the cylinder was changed each trial. After each exposure, animals were partially dried with a towel and returned to their home cages. All tests were performed in a quiet room.

SD rats [3] = experiment: Open field locomotor activity; assay type: in vivo, rat; conditions: ig. 32 mg/kg/day, days 2–15, vs untreated rats
Experimental: The detailed procedures were performed according to our previous studies. In brief, each SD rat was placed at the center of the open field (50 × 50 cm^2 chamber, 50-cm-high walls, with a 25 cm^2 area in the middle of floor defined as the central square) for 6 min in a quiet room. The animals were gently placed in the center of the platform and were allowed to explore the surroundings. A camera was installed above the center of the field. Immediately after a rat was placed at the center in the open field, the movements and position of the animals were recorded and registered automatically by computerized system. Next test was performed after cleaning the chamber. The traveled tracks of rats were recorded for 6 minutes and the videos of the last 4 minutes were analyzed also by Xeye Animal behavior analysis system.

[4] = test system: corticosterone injured PC12 cells; experiment: Real-time PCR BDNF mRNA level; assay type: cell-based, rat; conditions: 200 µM corticosterone and 5 µM drug
[5] = PAMPA-BBB literature value ref 38; cited from earlier work

COc1cccc2c1C(=O)c1c(O)c3c(c(O)c1C2=O)C[C@@](O)(C(=O)CO)C[C@@H]3O[C@H]1C[C@H](N)[C@H](O)[C@H](C)O1 [Adriamycin]
IC50 (H9C2 cells): 160 ± 20 nM

CNCCC(Oc1ccc(C(F)(F)F)cc1)c1ccccc1 (centres unmarked) [Fluoxetine]
fluorescence intensity of free intracellular calcium ion [1]: weaker fluorescence intensity than corticosterone-injured PC12 cells | mean immobility time reduced compared to the model group (SD rats [2]): 50.7% | improved travelled distance (SD rats [3]): 69.8% | BDNF mRNA level increase compared with corticosterone-injured group [4]: 32.1%

O=C1Nc2ccc(Cl)cc2C(c2ccccc2)=NC1O (centres unmarked) [Oxazepam]
Pe, Lit. [5]: 10 *10^−6 cm/s

CN1C(C(=O)Nc2ccccn2)=C(O)c2ccccc2S1(=O)=O [Piroxicam]
Pe, Lit. [5]: 2.5 *10^−6 cm/s

Cn1c(=O)c2[nH]cnc2n(C)c1=O [Theophylline]
Pe, Lit. [5]: 0.12 *10^−6 cm/s
